Measured values as given in paper PMC7911889 (Viruses, 2021).

Target: SARS-CoV-2 3CL^pro (Severe acute respiratory syndrome coronavirus 2, UniProt P0DTD1)
Type: cell-based

Substance: GRL-0496
- Effect on luciferase reporter activity / 3CL^pro inhibition (in words): clearly inhibited SARS-CoV-2 3CL^pro
